Experiment [1] has as its system Abutilon theophrasti. The experiment can be described thus: Phytotoxicity against Abutilon theophrasti assessed as seed germination at 0.8 mM after 2 days relative to control. The class given is functional.
Experiment [2] relates to Abutilon theophrasti. The experiment can be described thus: Phytotoxicity against Abutilon theophrasti assessed as seed germination at 0.6 mM after 2 days relative to control. The class given is functional.
The test system of experiment [3] is Abutilon theophrasti. The experiment can be described thus: Phytotoxicity against Abutilon theophrasti assessed as seed germination at 2 mM after 4 days relative to control. The class given is functional.
Experiment [4] deals with Abutilon theophrasti. Kind of experiment: Phytotoxicity against Abutilon theophrasti assessed as seed germination at 1 mM after 4 days relative to control. The class given is functional.
In experiment [5] the test system is Abutilon theophrasti. Kind of experiment: Phytotoxicity against Abutilon theophrasti assessed as seed germination at 2 mM after 2 weeks. The class given is functional, organism-based.
Experiment [6] concerns Abutilon theophrasti. Kind of experiment: Phytotoxicity against Abutilon theophrasti assessed as seed germination at 1 mM after 2 days relative to control. The class given is functional.
The subject of experiment [7] is Abutilon theophrasti. Kind of experiment: Phytotoxicity against Abutilon theophrasti assessed as seed germination at 0.6 mM after 4 days relative to control. The class given is functional.
Experiment [8] concerns Abutilon theophrasti. The experiment can be described thus: Phytotoxicity against Abutilon theophrasti assessed as seed germination at 0.8 mM after 4 days relative to control. The class given is functional.
The subject of experiment [9] is Abutilon theophrasti. The experiment can be described thus: Phytotoxicity against Abutilon theophrasti assessed as seed germination at 2 mM after 2 days relative to control. The class given is functional.
For experiment [10], the system named is Abutilon theophrasti. The experiment can be described thus: Phytotoxicity against Abutilon theophrasti assessed as seed germination at 5 mM after 2 days relative to control. The class given is functional.
In experiment [11] the test system is Abutilon theophrasti. Kind of experiment: Phytotoxicity against Abutilon theophrasti assessed as seed germination at 0.5 mM after 4 days relative to control. The class given is functional.
Experiment [12] deals with Abutilon theophrasti. Kind of experiment: Phytotoxicity against Abutilon theophrasti assessed as seed germination at 0.5 mM after 2 days relative to control. The class given is functional.
Experiment [13] relates to Abutilon theophrasti. Kind of experiment: Phytotoxicity against Abutilon theophrasti assessed as seed germination at 5 mM after 4 days relative to control. The class given is functional.

For the compound `O=C1C(O)Oc2ccccc2N1O` (stereo unspecified), the Activity in experiment [1] is 40%; in experiment [2], 59%; in experiment [3], 0%; in [4] it was 72%; in [5], “Toxic”; in experiment [6] it was 6%. Further, the figures for the Activity in experiment [7], in experiment [8] and in experiment [9] were 97%, 82% and 0%, respectively.
For the compound `O=C1C(O[C@@H]2O[C@H](CO)[C@@H](O)[C@H](O)[C@H]2O)Oc2ccccc2N1O` (stereo partly specified), the Activity in experiment [10] worked out at 89%.
Regarding `O=c1[nH]c2ccccc2o1` [BENZOXAZOLINONE], the Activity was 125% in experiment [11]; 116% in [4]; 118% in [12]; 111% in experiment [6]; 14% in [10]; 75% in [13].

These data come from ChEMBL document CHEMBL1151640, “Benzoxazolinone, 2,4-Dihydroxy-1,4-benzoxazin-3-one, and Its Glucoside from Acanthus mollis Seeds Inhibit Velvetleaf Germination and Growth” (1985).
